From US20230203098A1, “HUMAN TRANSFERRIN RECEPTOR BINDING PEPTIDE” (priority 2020, published 2023)
pKd: −log10 of the molar value. Read-outs that look alike come from different tables or passages of the source. Where a SMILES comes first, the peptide text is derived from it. Bridges are numbered along the chain shown (N, C = ends). [ ]: non-standard residue; d: D form. Lys(N3) = [N-]=[N+]=NCCCC[C@H](N)C(=O)O; NMeY = CN[C@@H](Cc1ccc(O)cc1)C(=O)O; NMeF = CN[C@@H](Cc1ccccc1)C(=O)O; Ahp(2) = CCCCC[C@H](N)C(=O)O

Molecular target: transferrin receptor (hTfR) (Homo sapiens, UniProt P02786)
Assay: Intermolecular interaction evaluation test between transferrin receptor (hTfR) and peptide by surface plasmon resonance (SPR)
Format: binding
Outline: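 Receptor was Ni-captured and EDC/NHS-fixed on an NTA chip; running buffer HEPES pH 8.0 with NaCl, Tween 20, BSA and 1.0% DMSO.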

transferrin receptor (hTfR), sequence (P02786 whole entry): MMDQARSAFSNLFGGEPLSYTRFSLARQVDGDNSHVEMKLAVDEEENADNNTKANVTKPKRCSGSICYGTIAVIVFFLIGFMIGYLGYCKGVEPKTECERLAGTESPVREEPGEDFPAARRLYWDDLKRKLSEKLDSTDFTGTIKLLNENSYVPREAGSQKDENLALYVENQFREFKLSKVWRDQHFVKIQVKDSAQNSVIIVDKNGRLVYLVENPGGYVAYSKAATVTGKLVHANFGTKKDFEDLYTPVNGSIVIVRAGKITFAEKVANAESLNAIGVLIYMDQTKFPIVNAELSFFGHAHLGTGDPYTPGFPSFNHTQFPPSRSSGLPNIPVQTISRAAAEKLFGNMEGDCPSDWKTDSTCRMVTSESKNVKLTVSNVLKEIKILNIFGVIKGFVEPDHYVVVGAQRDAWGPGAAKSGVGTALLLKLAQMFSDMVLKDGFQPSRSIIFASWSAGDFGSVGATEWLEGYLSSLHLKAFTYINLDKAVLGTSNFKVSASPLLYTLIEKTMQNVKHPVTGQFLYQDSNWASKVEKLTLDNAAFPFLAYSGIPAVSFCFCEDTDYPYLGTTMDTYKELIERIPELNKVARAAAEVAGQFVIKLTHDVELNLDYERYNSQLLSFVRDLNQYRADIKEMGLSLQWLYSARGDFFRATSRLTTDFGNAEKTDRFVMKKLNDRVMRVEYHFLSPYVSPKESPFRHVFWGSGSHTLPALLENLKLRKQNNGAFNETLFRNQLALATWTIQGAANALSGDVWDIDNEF

Compound: CCCCC[C@@H]1NC(=O)[C@H](CC(N)=O)NC(=O)[C@H](Cc2c[nH]c3ccccc23)NC(=O)[C@H](C(C)C)NC(=O)[C@H](Cc2ccccc2)N(C)C(=O)[C@H](C(C)C)NC(=O)[C@H](C)NC(=O)CSC[C@@H](C(=O)NCC(=O)N[C@@H](CCCCN=[N+]=[N-])C(N)=O)NC(=O)[C@H](Cc2ccc(O)cc2)N(C)C(=O)[C@H](Cc2ccc(O)cc2)NC(=O)[C@H](CCCNC(=N)N)NC(=O)[C@H](CCCNC(=N)N)NC(=O)[C@H]([C@@H](C)CC)NC(=O)[C@H]([C@@H](C)CC)NC(=O)[C@H](Cc2ccc(O)cc2)NC1=O [compound 276] ({CH2CO}-AV[NMeF]VWN[Ahp(2)]YIIRRY[NMeY]CG[Lys(N3)]-NH2; thioether N-15)
- pKd (binding to hTfR by SPR, Table 2 peptides, read-out: KD value (SPR) class): 6.00 to 7.00

Compound: CC[C@H](C)[C@@H]1NC(=O)[C@H](Cc2ccc(OC)cc2)NC(=O)[C@H](Cc2ccc(O)cc2)NC(=O)[C@H](CC(N)=O)NC(=O)[C@H](Cc2c[nH]c3ccc(Cl)cc23)NC(=O)[C@H](C(C)C)NC(=O)[C@H](Cc2cccc(Cl)c2)N(C)C(=O)[C@H](C(C)C)NC(=O)[C@H](C)NC(=O)CSC[C@@H](C(N)=O)NC(=O)[C@H](Cc2ccc(O)cc2)N(C)C(=O)[C@H](Cc2ccccc2)NC(=O)[C@@H](CCCNC(=N)N)NC(=O)[C@H](CCCNC(=N)N)NC(=O)[C@H]([C@@H](C)CC)NC1=O [compound 464]
- pKd (SPR, hTfR, class symbols A-D, read-out: KD): < 6.00

Compound: CC[C@H](C)[C@@H]1NC(=O)[C@H](Cc2ccc(O)cc2)NC(=O)[C@H](Cc2ccc(O)cc2)NC(=O)[C@H](CC(N)=O)NC(=O)[C@H](Cc2c[nH]c3ccccc23)NC(=O)[C@H](C(C)C)NC(=O)[C@H](Cc2ccccc2)NC(=O)[C@H](CCC(=O)O)NC(=O)[C@H](C)NC(=O)CSC[C@@H](C(N)=O)NC(=O)[C@H](Cc2ccc(O)cc2)N(C)C(=O)[C@H](Cc2ccc(O)cc2)NC(=O)[C@H](CCCNC(=N)N)NC(=O)[C@H](CCCNC(=N)N)NC(=O)[C@H]([C@@H](C)CC)NC1=O [compound 219]
- pKd (SPR, peptides, linker-added peptides and FITC conjugates, Patent ID 203-230, read-out: KD): 7.00 to 9.00

Compound: CC[C@H](C)[C@@H]1NC(=O)[C@H](Cc2ccc(OC)cc2)NC(=O)[C@H](Cc2ccc(O)cc2)NC(=O)[C@H](CC(N)=O)NC(=O)[C@H](Cc2c[nH]c3ccccc23)N(C)C(=O)[C@H](C(C)C)NC(=O)[C@H](Cc2cccc(Cl)c2)N(C)C(=O)[C@H](CCC(=O)O)NC(=O)[C@H](C)NC(=O)CSC[C@@H](C(=O)NCC(=O)NCC(=O)NCC(=O)NCC(=O)N[C@@H](CO)C(=O)N[C@@H](CO)C(=O)N[C@@H](CS)C(N)=O)NC(=O)[C@H](Cc2ccc(O)cc2)N(C)C(=O)[C@H](Cc2ccccc2)NC(=O)[C@@H](CCCNC(=N)N)NC(=O)[C@H](CCCNC(=N)N)NC(=O)[C@H]([C@@H](C)CC)NC1=O [compound 234]
- pKd: 7.00 to 9.00

Compound: CC[C@H](C)[C@@H]1NC(=O)[C@H](Cc2ccc(OC)cc2)NC(=O)[C@H](Cc2ccc(O)cc2)NC(=O)[C@H](CC(N)=O)NC(=O)[C@H](Cc2c[nH]c3ccccc23)N(C)C(=O)[C@H](C(C)C)NC(=O)[C@H](Cc2cccc(Cl)c2)N(C)C(=O)[C@H](C(C)C)NC(=O)[C@H](C)NC(=O)CSC[C@@H](C(N)=O)NC(=O)[C@H](Cc2ccc(O)cc2)N(C)C(=O)[C@H](Cc2ccccc2)NC(=O)[C@H](CCCNC(=N)N)NC(=O)[C@H](CCCCN)NC(=O)[C@H]([C@@H](C)CC)NC1=O [compound 371]
- pKd (surface plasmon resonance, hTfR, read-out: KD value for hTfR by SPR (class symbol)): > 9.00

Compound: CC[C@H](C)[C@@H]1NC(=O)[C@H](Cc2ccc(O)cc2)NC(=O)[C@H](Cc2ccc(O)cc2)NC(=O)[C@H](CC(N)=O)NC(=O)[C@H](Cc2c[nH]c3ccccc23)NC(=O)[C@H](C(C)C)NC(=O)[C@H](Cc2ccccc2)NC(=O)[C@H](C(C)C)NC(=O)[C@H](C)NC(=O)CSC[C@@H](C(=O)NCCOCCOCCOCCOCCC(=O)N[C@@H](CNC(=O)c2ccc(-c3c4ccc(=O)cc-4oc4cc(O)ccc34)c(C(=O)O)c2)C(N)=O)NC(=O)[C@H](Cc2ccc(O)cc2)N(C)C(=O)[C@H](Cc2ccc(O)cc2)NC(=O)[C@H](CCCNC(=N)N)NC(=O)[C@H](CCCNC(=N)N)N(C)C(=O)[C@H]([C@@H](C)CC)NC1=O [compound 164]
- pKd (SPR, linker and payload (FITC, VivoTag) conjugates, read-out: KD): 7.00 to 9.00
